Measured values taken from patent publication US20190367516A1 (Bayer Pharma Aktiengesellschaft, priority 2015, published 2019).

target: T1, human M2 receptor (Homo sapiens, UniProt P08172); settings: Receptor activity EC50, M2-GIRK1/4 activation test, acetylcholine at EC20; allosteric potency; in some cases mean values from two or more determinations
T1 sequence (P08172 1-466): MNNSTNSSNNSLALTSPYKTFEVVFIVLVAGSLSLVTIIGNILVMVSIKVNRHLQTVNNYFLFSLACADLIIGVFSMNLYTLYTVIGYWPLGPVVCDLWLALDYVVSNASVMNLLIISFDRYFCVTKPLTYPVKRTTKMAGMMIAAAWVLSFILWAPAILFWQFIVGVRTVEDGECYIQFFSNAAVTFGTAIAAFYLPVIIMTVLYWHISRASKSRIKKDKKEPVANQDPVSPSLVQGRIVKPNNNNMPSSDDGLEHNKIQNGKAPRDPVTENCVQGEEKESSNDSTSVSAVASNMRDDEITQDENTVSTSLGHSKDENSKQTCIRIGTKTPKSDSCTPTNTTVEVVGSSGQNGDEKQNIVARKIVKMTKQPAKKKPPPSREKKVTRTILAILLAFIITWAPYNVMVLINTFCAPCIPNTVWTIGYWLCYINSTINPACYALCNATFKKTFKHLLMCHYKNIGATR

SMILES | EC50
CC[C@@H](NC(=O)c1cn(-c2ccc(F)cc2F)c2nc(N3CCC(O)(O)C(F)C3)ccc2c1=O)C(F)(F)F (mixture of isomers) [Example 34, 1-(2,4-Difluorophenyl)-7-[3-fluoro-4,4-dihydroxypiperidin-1-yl]-4-oxo-N-[(2R)-1,1,1-trifluorobutan-2-yl]-1,4-dihydro-1,8-naphthyridine-3-carboxamide (diastereomer mixture)] | 95 nM
O=C(NC1(C(F)(F)F)CCOC1)c1cn(-c2ccc(F)cc2F)c2nc(N3C[C@@H](O)CC3=O)ccc2c1=O (mixture of isomers) [Example 238, 1-(2,4-Difluorophenyl)-7-[(4S)-4-hydroxy-2-oxopyrrolidin-1-yl]-4-oxo-N-[3-(trifluoromethyl)tetrahydrofuran-3-yl]-1,4-dihydro-1,8-naphthyridine-3-carboxamide] | 1640 nM
CC[C@@H](NC(=O)c1cn(-c2ccc(F)cc2F)c2nc(N3CC(C)OC3=O)ccc2c1=O)C(F)(F)F (mixture of isomers) [Example 266, 1-(2,4-Difluorophenyl)-7-[5-methyl-2-oxo-1,3-oxazolidin-3-yl]-4-oxo-N-[(2R)-1,1,1-trifluorobutan-2-yl]-1,4-dihydro-1,8-naphthyridine-3-carboxamide] | 743 nM
O=C(NC(c1ccc(F)cc1)C(F)(F)F)c1cn(-c2ccc(F)cc2F)c2nc(N3C[C@@H](O)CC3=O)ccc2c1=O (mixture of isomers) [Example 273, 1-(2,4-Difluorophenyl)-7-[(4S)-4-hydroxy-2-oxopyrrolidin-1-yl]-4-oxo-N-[2,2,2-trifluoro-1-(4-fluorophenyl)ethyl]-1,4-dihydro-1,8-naphthyridine-3-carboxamide] | 44 nM
O=C(NC(c1cccc(Cl)c1)C(F)(F)F)c1cn(-c2ccc(F)cc2F)c2nc(N3C[C@@H](O)CC3=O)ccc2c1=O (mixture of isomers) [Example 274, N-[1-(3-Chlorophenyl)-2,2,2-trifluoroethyl]-1-(2,4-difluorophenyl)-7-[(4S)-4-hydroxy-2-oxopyrrolidin-1-yl]-4-oxo-1,4-dihydro-1,8-naphthyridine-3-carboxamide] | 49 nM
O=C(NC12CC3CC(CC(C3)C1)C2)c1cn(-c2ccc(F)cc2F)c2nc(N3CCCC(O)C3)ccc2c1=O (racemic) [Example 14, rac-1-(2,4-Difluorophenyl)-7-(3-hydroxypiperidin-1-yl)-4-oxo-N-(tricyclo[3.3.1.1^3,7]dec-1-yl)-1,4-dihydro-1,8-naphthyridine-3-carboxamide] | 82 nM
CCC(NC(=O)c1cn(-c2ccc(F)cc2F)c2nc(N3CC(CO)C3)ccc2c1=O)C(F)(F)F (racemic) [Example 26, rac-1-(2,4-Difluorophenyl)-7-[3-(hydroxymethyl)azetidin-1-yl]-4-oxo-N-[1,1,1-trifluorobutan-2-yl]-1,4-dihydro-1,8-naphthyridine-3-carboxamide] | 164 nM
CC(CC(F)(F)F)NC(=O)c1cn(-c2ccc(F)cc2F)c2nc(N(C)C)ccc2c1=O (racemic) [Example 46, rac-1-(2,4-Difluorophenyl)-7-(dimethylamino)-4-oxo-N-[4,4,4-trifluorobutan-2-yl]-1,4-dihydro-1,8-naphthyridine-3-carboxamide] | 127 nM
CN(C)c1ccc2c(=O)c(C(=O)NC(c3ccccc3Cl)C(F)(F)F)cn(-c3ccc(F)cc3F)c2n1 (racemic) [Example 48, rac-N-[1-(2-Chlorophenyl)-2,2,2-trifluoroethyl]-1-(2,4-difluorophenyl)-7-(dimethylamino)-4-oxo-1,4-dihydro-1,8-naphthyridine-3-carboxamide] | 110 nM
CCC(NC(=O)c1cn(-c2ccc(F)cc2F)c2nc(N3CCC(F)(F)C3)ccc2c1=O)C(F)(F)F (racemic) [Example 74, rac-1-(2,4-Difluorophenyl)-7-(3,3-difluoropyrrolidin-1-yl)-4-oxo-N-[1,1,1-trifluorobutan-2-yl]-1,4-dihydro-1,8-naphthyridine-3-carboxamide] | 58 nM
CCCC(NC(=O)c1cn(-c2ccc(F)cc2F)c2nc(N3CCC(F)(F)C3)ccc2c1=O)C(F)(F)F (racemic) [Example 76, rac-1-(2,4-Difluorophenyl)-7-(3,3-difluoropyrrolidin-1-yl)-4-oxo-N-[1,1,1-trifluoropentan-2-yl]-1,4-dihydro-1,8-naphthyridine-3-carboxamide] | 69 nM
CCCC(NC(=O)c1cn(-c2ccc(F)cc2F)c2nc(NCCF)ccc2c1=O)C(F)(F)F (racemic) [Example 86, rac-1-(2,4-Difluorophenyl)-7-[(2-fluoroethyl)amino]-4-oxo-N-[(2R)-1,1,1-trifluoropentan-2-yl]-1,4-dihydro-1,8-naphthyridine-3-carboxamide] | 108 nM
CC(C)CC(NC(=O)c1cn(-c2ccc(F)cc2F)c2nc(NCC(F)(F)F)ccc2c1=O)C(F)(F)F (racemic) [Example 95, rac-1-(2,4-Difluorophenyl)-4-oxo-7-[(2,2,2-trifluoroethyl)amino]-N-[1,1,1-trifluoro-4-methylpentan-2-yl]-1,4-dihydro-1,8-naphthyridine-3-carboxamide] | 144 nM
CC(NC(=O)c1cn(-c2ccc(F)cc2F)c2nc(N(C)CC(F)(F)F)ccc2c1=O)C(F)(F)F (racemic) [Example 99, rac-1-(2,4-Difluorophenyl)-7-[methyl(2,2,2-trifluoroethyl)amino]-4-oxo-N-[1,1,1-trifluoropropan-2-yl]-1,4-dihydro-1,8-naphthyridine-3-carboxamide] | 182 nM
CCC(NC(=O)c1cn(-c2ccc(F)cc2F)c2nc(N(C)CC(F)(F)F)ccc2c1=O)C(F)(F)F (racemic) [Example 100] | 143 nM
CC(NC(=O)c1cn(-c2ccc(F)cc2F)c2nc(N(C)CCF)ccc2c1=O)C(F)(F)F (racemic) [Example 105, rac-1-(2,4-Difluorophenyl)-7-[(2-fluoroethyl)(methyl)amino]-4-oxo-N-[1,1,1-trifluoropropan-2-yl]-1,4-dihydro-1,8-naphthyridine-3-carboxamide] | 146 nM
CC(NC(=O)c1cn(-c2ccc(F)cc2F)c2nc(N(C)CC(F)F)ccc2c1=O)C(F)(F)F (racemic) [Example 113, rac-7-[(2,2-Difluoroethyl)(methyl)amino]-1-(2,4-difluorophenyl)-4-oxo-N-[1,1,1-trifluoropropan-2-yl]-1,4-dihydro-1,8-naphthyridine-3-carboxamide] | 141 nM
CCC(NC(=O)c1cn(-c2ccc(F)cc2F)c2nc(N(C)CC(F)F)ccc2c1=O)C(F)(F)F (racemic) [Example 114, rac-7-[(2,2-Difluoroethyl)(methyl)amino]-1-(2,4-difluorophenyl)-4-oxo-N-[1,1,1-trifluorobutan-2-yl]-1,4-dihydro-1,8-naphthyridine-3-carboxamide] | 98 nM
O=C(NC12CC3CC(CC(C3)C1)C2)c1cn(-c2ccc(F)cc2F)c2nc(N3CCOC(CO)C3)ccc2c1=O (racemic) [Example 118, rac-1-(2,4-Difluorophenyl)-7-[2-(hydroxymethyl)morpholin-4-yl]-4-oxo-N-(tricyclo[3.3.1.1^3,7]dec-1-yl)-1,4-dihydro-1,8-naphthyridine-3-carboxamide] | 91 nM
CC1(O)CCCN(c2ccc3c(=O)c(C(=O)NC45CC6CC(CC(C6)C4)C5)cn(-c4ccc(F)cc4F)c3n2)C1 (racemic) [Example 119, rac-1-(2,4-Difluorophenyl)-7-(3-hydroxy-3-methylpiperidin-1-yl)-4-oxo-N-(tricyclo[3.3.1.1^3,7]dec-1-yl)-1,4-dihydro-1,8-naphthyridine-3-carboxamide] | 90 nM
CCC(NC(=O)c1cn(-c2ccc(F)cc2F)c2nc(NCC(F)F)ccc2c1=O)C(F)(F)F (racemic) [Example 122, rac-7-[(2,2-Difluoroethyl)amino]-1-(2,4-difluorophenyl)-4-oxo-N-[1,1,1-trifluorobutan-2-yl]-1,4-dihydro-1,8-naphthyridine-3-carboxamide] | 94 nM
CC(C)CC(NC(=O)c1cn(-c2ccc(F)cc2F)c2nc(NCC(F)F)ccc2c1=O)C(F)(F)F (racemic) [Example 125, rac-7-[(2,2-Difluoroethyl)amino]-1-(2,4-difluorophenyl)-4-oxo-N-[1,1,1-trifluoro-4-methylpentan-2-yl]-1,4-dihydro-1,8-naphthyridine-3-carboxamide] | 116 nM
Cc1cccc(C(NC(=O)c2cn(-c3ccc(F)cc3F)c3nc(N(C)C)ccc3c2=O)C(F)(F)F)c1 (racemic) [Example 138, rac-1-(2,4-Difluorophenyl)-7-(dimethylamino)-4-oxo-N-[2,2,2-trifluoro-1-(3-methylphenyl)ethyl]-1,4-dihydro-1,8-naphthyridine-3-carboxamide] | 68 nM
CN(C)c1ccc2c(=O)c(C(=O)NC(c3ccc(F)cc3)C(F)(F)F)cn(-c3ccc(F)cc3F)c2n1 (racemic) [Example 139, rac-1-(2,4-Difluorophenyl)-7-(dimethylamino)-4-oxo-N-[2,2,2-trifluoro-1-(4-fluorophenyl)ethyl]-1,4-dihydro-1,8-naphthyridine-3-carboxamide] | 65 nM
CN(C)c1ccc2c(=O)c(C(=O)NC(c3cccc(F)c3)C(F)(F)F)cn(-c3ccc(F)cc3F)c2n1 (racemic) [Example 140, rac-1-(2,4-Difluorophenyl)-7-(dimethylamino)-4-oxo-N-[2,2,2-trifluoro-1-(3-fluorophenyl)ethyl]-1,4-dihydro-1,8-naphthyridine-3-carboxamide] | 68 nM
